# Assay results from US20120115869A1, “TETRAZOLE DERIVATIVES” (MERCK SERONO S.A., priority 2009, published 2012).
# Biological target: T1, CRTH2 (DP2) (Homo sapiens, UniProt Q9Y5Y4)
# T1 construct: host or cells: CHO cells
# T1 sequence (Q9Y5Y4 1-395): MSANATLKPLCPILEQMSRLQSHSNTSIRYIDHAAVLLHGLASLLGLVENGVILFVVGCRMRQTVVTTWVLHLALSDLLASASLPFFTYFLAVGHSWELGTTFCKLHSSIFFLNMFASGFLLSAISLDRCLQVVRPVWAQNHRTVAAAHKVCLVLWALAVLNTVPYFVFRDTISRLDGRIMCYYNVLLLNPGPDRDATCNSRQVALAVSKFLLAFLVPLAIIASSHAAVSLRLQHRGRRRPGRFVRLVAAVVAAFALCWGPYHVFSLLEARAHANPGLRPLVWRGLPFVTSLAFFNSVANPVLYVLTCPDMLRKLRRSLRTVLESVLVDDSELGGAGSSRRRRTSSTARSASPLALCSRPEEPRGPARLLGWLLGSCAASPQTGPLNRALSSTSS
# Experiment: Radioligand binding Scintillation Proximity Assay ([3H]PGD2, hCRTH2-CHO cell membranes)
# Conditions: 1.5 nM [3H]PGD2, hCRTH2-CHO cell membranes, SPA
# Description: Adherent CHO cells expressing hCRTH2 (Euroscreen, Belgium) were cultured in 225 cm^2 cell culture flasks (Corning, USA) in 30 ml of medium. After two rinses of phosphate buffered saline (PBS), cells were harvested in 10 ml of PBS containing 1 mM EDTA, centrifuged at 500×g for 5 min at 4° C. and frozen at −80° C. The pellet was re-suspended in 50 mM Tris-HCl, pH 7.4, 2 mM EDTA, 250 mM Sucrose, containing protease inhibitor cocktail tablets, (Complete EDTA-free, Roche, Germany) and incubated 30 min at 4° C. Cells were disrupted by nitrogen cavitation (Parr Instruments, USA) at 4° C. (800 p.s.i. for 30 min), and centrifuged at 500×g for 10 min at 4° C. Pellet containing nuclei and cellular debris was discarded and supernatant was centrifuged 60 min at 4° C. at 45000×g. Membrane pellet was re-suspended in storage buffer (10 mM HEPES/KOH pH 7.4, 1 mM EDTA, 250 mM sucrose, protease inhibitor cocktail tablets) using Dounce homogenization and frozen in liquid nitrogen, and stored at 80° C.
# Non-specific binding was determined in the presence of 10 μM PGD2 (Cayman, USA). Competing Compounds of Formula (I) were diluted in dimethylsulphoxide so that the total volume of dimethylsulfoxide was kept constant at 1% dimethylsulphoxide (Me2SO). Serial dilutions of […] were prepared and 10 μl each of the compounds of Formula (I) stock solutions were added to the binding assay reagents and incubated for 90 min with agitation at room temperature.
row,SMILES,IC50
1,"CCC(=O)N(Cc1ccc(-c2c(C)nn(C)c2C)cc1)c1cc(F)cc(-c2nnn[nH]2)c1 [Example 94, N-[3-fluoro-5-(1H-tetrazol-5-yl)phenyl]-N-[4-(1,3,5-trimethyl-1H-pyrazol-4-yl)benzyl]propanamide]",21 nM
2,"CCC(=O)N(Cc1c(C)noc1-c1ccccc1)c1cccc(-c2nnn[nH]2)c1 [Example 24, N-[(3-methyl-5-phenylisoxazol-4-yl)methyl]-N-[3-(1H-tetrazol-5-yl)phenyl]propanamide]",2180 nM
3,"CCC(=O)N(Cc1ccc(-c2cnoc2)cc1)c1cc(F)cc(-c2nnn[nH]2)c1 [Example 111, N-[3-fluoro-5-(1H-tetrazol-5-yl)phenyl]-N-(4-isoxazol-4-ylbenzyl)propanamide]",113 nM
4,"CCC(=O)N(Cc1ccc(-c2sc(C)nc2C)cc1)c1cc(F)cc(-c2nnn[nH]2)c1 [Example 119, N-[4-(2,4-dimethyl-1,3-thiazol-5-yl)benzyl]-N-[3-fluoro-5-(1H-tetrazol-5-yl)phenyl]propanamide]",5.2 nM
5,"CS(=O)(=O)c1ccc(CN(C(=O)c2ccncc2)c2cc(F)cc(-c3nnn[nH]3)c2)cc1 [Example 106, N-[3-fluoro-5-(1H-tetrazol-5-yl)phenyl]-N-[4-(methylsulfonyl)benzyl]isonicotinamide]",20 nM
6,"CCC(=O)N(Cc1ccc(-c2cn(C)nc2C)cc1)c1cc(F)cc(-c2nnn[nH]2)c1 [Example 88, N-[4-(1,3-dimethyl-1H-pyrazol-4-yl)benzyl]-N-[3-fluoro-5-(1H-tetrazol-5-yl)phenyl]propanamide]",21 nM
7,"CCC(=O)N(Cc1cccc(-c2ccn[nH]2)c1)c1cc(F)cc(-c2nnn[nH]2)c1 [Example 115, N-[3-fluoro-5-(1H-tetrazol-5-yl)phenyl]-N-[3-(1H-pyrazol-5-yl)benzyl]propanamide]",30 nM
8,"CCC(=O)N(Cc1ccc(-c2ccccc2C)cc1)c1cc(F)cc(-c2nnn[nH]2)c1 [Example 102, N-[3-fluoro-5-(1H-tetrazol-5-yl)phenyl]-N-[(2′-methylbiphenyl-4-yl)methyl]propanamide]",8.9 nM
9,"Cc1cc(C(=O)N(Cc2ccc(S(C)(=O)=O)cc2)c2cc(F)cc(-c3nnn[nH]3)c2)n(C)n1 [Example 110, N-[3-fluoro-5-(1H-tetrazol-5-yl)phenyl]-1,3-dimethyl-N-[4-(methylsulfonyl)benzyl]-1H-pyrazole-5-carboxamide]",56 nM
10,"CCC(=O)N(Cc1cccc(SC(F)(F)F)c1)c1cc(F)cc(-c2nnn[nH]2)c1 [Example 77, N-[3-fluoro-5-(1H-tetrazol-5-yl)phenyl]-N-{3-[(trifluoromethyl)thio]benzyl}propanamide]",16 nM
11,"CCC(=O)N(Cc1ccc([S+]([O-])C(F)(F)F)cc1)c1cc(F)cc(-c2nnn[nH]2)c1 (stereo not shown) [Example 113, N-[3-fluoro-5-(1H-tetrazol-5-yl)phenyl]-N-{4-[(trifluoromethyl)sulfinyl]benzyl}propanamide]",3.5 nM
12,"CS(=O)(=O)c1ccc(CN(C(=O)c2cccnc2)c2cc(F)cc(-c3nnn[nH]3)c2)cc1 [Example 116, N-[3-fluoro-5-(1H-tetrazol-5-yl)phenyl]-N-[4-(methylsulfonyl)benzyl]nicotinamide]",4.6 nM
13,"CCC(=O)N(Cc1cccc(-c2cccnc2)c1)c1cc(F)cc(-c2nnn[nH]2)c1 [Example 81, N-[3-fluoro-5-(1H-tetrazol-5-yl)phenyl]-N-(3-pyridin-3-ylbenzyl)propanamide]",34 nM
14,"CCC(=O)N(Cc1ccc(SC(F)(F)F)cc1)c1cc(F)cc(-c2nnn[nH]2)c1 [Example 82, N-[3-fluoro-5-(1H-tetrazol-5-yl)phenyl]-N-{4-[(trifluoromethyl)thio]benzyl}propanamide]",2.6 nM
15,"CCCCC(=O)N(Cc1cc2ccccc2o1)c1cc(-c2nnn[nH]2)ccc1F [Example 12, N-(1-benzofuran-2-ylmethyl)-N-[2-fluoro-5-(1H-tetrazol-5-yl)phenyl]pentanamide]",8.6 nM
16,"CCC(=O)N(Cc1ccc(-c2cccnc2)cc1)c1cc(F)cc(-c2nnn[nH]2)c1 [Example 90, N-[3-fluoro-5-(1H-tetrazol-5-yl)phenyl]-N-(4-pyridin-3-ylbenzyl)propanamide]",140 nM
17,"CCC(=O)N(Cc1ccc2ccccc2n1)c1cc(F)cc(-c2nnn[nH]2)c1 [Example 80, N-[3-fluoro-5-(1H-tetrazol-5-yl)phenyl]-N-(quinolin-2-ylmethyl)propanamide]",65 nM
18,"CCC(=O)N(Cc1ccc(-c2ccccc2OC)cc1)c1cc(F)cc(-c2nnn[nH]2)c1 [Example 99, N-[3-fluoro-5-(1H-tetrazol-5-yl)phenyl]-N-[(2′-methoxybiphenyl-4-yl)methyl]propanamide]",13 nM
19,"CS(=O)(=O)c1ccc(CN(C(=O)C2CCOCC2)c2cc(F)cc(-c3nnn[nH]3)c2)cc1 [Example 118, N-[3-fluoro-5-(1H-tetrazol-5-yl)phenyl]-N-[4-(methylsulfonyl)benzyl]tetrahydro-2H-pyran-4-carboxamide]",32 nM
20,"CCC(=O)N(Cc1ccc(-c2ccccc2)cc1)c1cc(F)cc(-c2nnn[nH]2)c1 [Example 97, N-(biphenyl-4-ylmethyl)-N-[3-fluoro-5-(1H-tetrazol-5-yl)phenyl]propanamide]",70 nM
21,"CCNS(=O)(=O)c1cccc(-c2ccc(CN(C(=O)CC)c3cc(F)cc(-c4nnn[nH]4)c3)cc2)c1 [Example 86, N-({3′-[(ethylamino)sulfonyl]biphenyl-4-yl}methyl)-N-[3-fluoro-5-(1H-tetrazol-5-yl)phenyl]propanamide]",170 nM

# Continued, values first:
row,IC50,SMILES
1,455 nM,"CCC(=O)N(Cc1ccc(-c2cn[nH]c2)cc1)c1cccc(-c2nnn[nH]2)c1 [Example 70, N-[4-(1H-pyrazol-4-yl)benzyl]-N-[3-(1H-tetrazol-5-yl)phenyl]propanamide]"
2,444 nM,"CCC(=O)N(Cc1cccc(OC)c1)c1cccc(-c2nnn[nH]2)c1 [Example 25, N-(3-methoxybenzyl)-N-[3-(1H-tetrazol-5-yl)phenyl]propanamide]"
3,1140 nM,"CCC(=O)N(Cc1cccc(C#CCOC)c1)c1cccc(-c2nnn[nH]2)c1 [Example 47, N-[3-(3-methoxyprop-1-yn-1-yl)benzyl]-N-[3-(1H-tetrazol-5-yl)phenyl]propanamide]"
4,49 nM,"CCCCC(=O)N(Cc1ccc2ccccc2c1)c1cccc(-c2nnn[nH]2)c1 [Example 3, N-(2-naphthylmethyl)-N-[3-(1H-tetrazol-5-yl)phenyl]pentanamide]"
5,759 nM,"CCCCC(=O)N(Cc1ccsc1)c1cccc(-c2nnn[nH]2)c1 [Example 21, N-[3-(1H-tetrazol-5-yl)phenyl]-N-(3-thienylmethyl)pentanamide]"
6,506 nM,"CCC(=O)N(Cc1ccc(-c2ccccc2)cc1)c1cccc(-c2nnn[nH]2)c1 [Example 69, N-(biphenyl-4-ylmethyl)-N-[3-(1H-tetrazol-5-yl)phenyl]propanamide]"
7,83 nM,"CCC(=O)N(Cc1ccc(OC(F)(F)F)c(Cl)c1)c1cccc(-c2nnn[nH]2)c1 [Example 45, N-[3-chloro-4-(trifluoromethoxy)benzyl]-N-[3-(1H-tetrazol-5-yl)phenyl]propanamide]"
8,1590 nM,"CCC(=O)N(Cc1cccs1)c1cccc(-c2nnn[nH]2)c1 [Example 17, N-[3-(1H-tetrazol-5-yl)phenyl]-N-(2-thienylmethyl)propanamide]"
9,1160 nM,"CCC(=O)N(Cc1ccccc1F)c1cccc(-c2nnn[nH]2)c1 [Example 33, N-(2-fluorobenzyl)-N-[3-(1H-tetrazol-5-yl)phenyl]propanamide]"
10,182 nM,"CCC(=O)N(Cc1ccc(-c2c(C)noc2C)cc1)c1cccc(-c2nnn[nH]2)c1 [Example 71, N-[4-(3,5-dimethylisoxazol-4-yl)benzyl]-N-[3-(1H-tetrazol-5-yl)phenyl]propanamide]"
11,1270 nM,"CCC(=O)N(Cc1cccc(C#CCO)c1)c1cccc(-c2nnn[nH]2)c1 [Example 48, N-[3-(3-hydroxyprop-1-yn-1-yl)benzyl]-N-[3-(1H-tetrazol-5-yl)phenyl]propanamide]"
12,245 nM,"CCC(=O)N(Cc1cccc(OC(F)(F)F)c1)c1cccc(-c2nnn[nH]2)c1 [Example 42, N-[3-(1H-tetrazol-5-yl)phenyl]-N-[3-(trifluoromethoxy)benzyl]propanamide]"
13,51 nM,"CCC(=O)N(Cc1ccc2c(c1)OCCO2)c1cccc(-c2nnn[nH]2)c1 [Example 20, N-(2,3-dihydro-1,4-benzodioxin-6-ylmethyl)-N-[3-(1H-tetrazol-5-yl)phenyl]propanamide]"
